Data taken from patent publication US9850283B2, “Macrocyclic inhibitors of the PD-1/PD-L1 and CD80(B7-1)/PD-L1 protein/protein interactions” (BRISTOL-MYERS SQUIBB COMPANY, priority 2013, dated 2017).
Positions of bridges follow the written chain, without caps; N, C: chain ends. Non-standard residues stand in square brackets, D forms with d. Residues, ends and D or L forms follow the SMILES beside them. Hyp = O=C(O)[C@@H]1C[C@@H](O)CN1; NMeNle = CCCC[C@H](NC)C(=O)O; NMeA = CN[C@@H](C)C(=O)O; Orn = NCCC[C@H](N)C(=O)O; Dab = NCC[C@H](N)C(=O)O; Dap = NC[C@H](N)C(=O)O

Tests used:
Human PD-L1/PD-1 = target: T1, Human PD-L1/PD-1 (Homo sapiens, UniProt Q9NZQ7); assay: HTRF PD-1-Ig/PD-L1-His binding assay (human PD-L1); settings: cluster symbol; read-out: HTRF IC50 cluster
T1 construct: made in house; host or cells: HEK293T
T1 sequence (Q9NZQ7 with tags, fused parts or gaps): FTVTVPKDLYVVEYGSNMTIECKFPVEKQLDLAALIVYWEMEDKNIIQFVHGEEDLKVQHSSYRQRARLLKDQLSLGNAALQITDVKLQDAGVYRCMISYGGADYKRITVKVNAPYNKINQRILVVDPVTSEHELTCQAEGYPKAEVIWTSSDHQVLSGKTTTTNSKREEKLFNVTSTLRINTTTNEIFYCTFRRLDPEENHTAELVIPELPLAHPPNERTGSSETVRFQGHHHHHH
Summary of the method: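 Readout: time-resolved FRET between Eu cryptate-labeled anti-Ig (1 nM final) and APC-labeled anti-His (20 nM final) antibodies. These detect interaction of Fc-fused PD-1 with His-tagged human PD-L1 in dPBS containing 0.1% BSA and 0.05% Tween-20.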

[1] = target: T2, LK35.2-hPD-L1 cells / PE-labeled PD-1-Ig (Homo sapiens, UniProt Q9NZQ7); assay: LK35.2-hPD-L1 cell binding high-content screening assay; format: cell-based; settings: cell binding assay, cell line not given; cluster symbol; read-out: CBA IC50 cluster
T2 construct: expressed in transfected cells; host or cells: LK35.2 mouse B cell line
T2 sequence (Q9NZQ7 19-290): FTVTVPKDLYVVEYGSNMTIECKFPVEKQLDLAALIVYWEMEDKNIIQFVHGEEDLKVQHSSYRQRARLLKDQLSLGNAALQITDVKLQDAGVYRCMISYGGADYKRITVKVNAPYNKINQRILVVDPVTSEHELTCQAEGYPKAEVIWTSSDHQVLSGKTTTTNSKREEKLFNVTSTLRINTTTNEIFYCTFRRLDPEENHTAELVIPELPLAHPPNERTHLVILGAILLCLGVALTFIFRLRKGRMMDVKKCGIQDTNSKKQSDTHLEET
Summary of the method: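 Mouse LK35.2 B cells stably overexpressing human PD-L1 were cultured overnight in RPMI with 10% FCS, then given compound and PE-labeled human PD-1-Ig (1 nM final) for 1 h at 37 °C. After three dPBS washes, bound fluorescence was quantified by high-content imaging.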

IC50 (Human PD-L1/PD-1)	IC50 [1]	Compound
0.385 to 6.74 nM	4.78 to 72.9 nM	CCCC[C@H]1C(=O)N(C)[C@@H](CCCC)C(=O)N[C@@H](CC(C)C)C(=O)N[C@H](C(=O)NCC(N)=O)CSCC(=O)N[C@@H](Cc2ccc(O)cc2)C(=O)N(C)[C@@H](C)C(=O)N[C@@H](CCN)C(=O)N2CCC[C@H]2C(=O)N[C@@H](Cc2c[nH]cn2)C(=O)N[C@@H](CCC(=O)O)C(=O)N2C[C@H](O)C[C@H]2C(=O)N[C@@H](Cc2c[nH]c3ccccc23)C(=O)N[C@@H](CO)C(=O)N[C@@H](Cc2c[nH]c3ccccc23)C(=O)N1C [Example 5133] ({CH2CO}-Y[NMeA][Dab]PHE[Hyp]WSW[NMeNle][NMeNle]LCG-NH2; thioether N-14)
0.385 to 6.74 nM	4.78 to 72.9 nM	CCCC[C@H]1C(=O)N(C)[C@@H](CCCC)C(=O)N[C@@H](CCCNC(=N)N)C(=O)N[C@H](C(=O)NCC(N)=O)CSCC(=O)N[C@@H](Cc2ccc(O)cc2)C(=O)N(C)[C@@H](C)C(=O)N[C@@H](CN)C(=O)N2CCC[C@H]2C(=O)N[C@@H](Cc2c[nH]cn2)C(=O)N[C@@H](CC(=O)O)C(=O)N2C[C@H](O)C[C@H]2C(=O)N[C@@H](Cc2c[nH]c3ccccc23)C(=O)N[C@@H](CO)C(=O)N[C@@H](Cc2c[nH]c3ccccc23)C(=O)N1C [Example 5134] ({CH2CO}-Y[NMeA][Dap]PHD[Hyp]WSW[NMeNle][NMeNle]RCG-NH2; thioether N-14)
6.76 to 30.3 nM	4.78 to 72.9 nM	CCCC[C@H]1C(=O)N(C)[C@@H](CCCC)C(=O)N[C@@H](CO)C(=O)N[C@H](C(=O)NCC(N)=O)CSCC(=O)N[C@@H](Cc2ccc(O)cc2)C(=O)N(C)[C@@H](C)C(=O)N[C@@H](CO)C(=O)N2CCC[C@H]2C(=O)N[C@@H](CO)C(=O)N[C@@H](CO)C(=O)N2C[C@H](O)C[C@H]2C(=O)N[C@@H](Cc2c[nH]c3ccccc23)C(=O)N[C@@H](CO)C(=O)N[C@@H](Cc2c[nH]c3ccccc23)C(=O)N1C [Example 5135] ({CH2CO}-Y[NMeA]SPSS[Hyp]WSW[NMeNle][NMeNle]SCG-NH2; thioether N-14)
0.385 to 6.74 nM	0.158 to 4.71 nM	CCCC[C@H]1C(=O)N(C)[C@@H](CCCC)C(=O)N[C@@H](CCC(=O)O)C(=O)N[C@H](C(=O)NCC(N)=O)CSCC(=O)N[C@@H](Cc2ccc(O)cc2)C(=O)N(C)[C@@H](C)C(=O)N[C@@H](CC(=O)O)C(=O)N2CCC[C@H]2C(=O)N[C@@H](Cc2c[nH]cn2)C(=O)N[C@@H](CCCN)C(=O)N2C[C@H](O)C[C@H]2C(=O)N[C@@H](Cc2c[nH]c3ccccc23)C(=O)N[C@@H](CCCCN)C(=O)N[C@@H](Cc2c[nH]c3ccccc23)C(=O)N1C [Example 5137] ({CH2CO}-Y[NMeA]DPH[Orn][Hyp]WKW[NMeNle][NMeNle]ECG-NH2; thioether N-14)
0.385 to 6.74 nM	0.158 to 4.71 nM	CCCC[C@H]1C(=O)N(C)[C@@H](CCCC)C(=O)N[C@@H](CCC(=O)O)C(=O)N[C@H](C(=O)NCC(N)=O)CSCC(=O)N[C@@H](Cc2ccc(O)cc2)C(=O)N(C)[C@@H](C)C(=O)N[C@@H](CCC(=O)O)C(=O)N2CCC[C@H]2C(=O)N[C@@H](Cc2c[nH]cn2)C(=O)N[C@@H](CCCN)C(=O)N2C[C@H](O)C[C@H]2C(=O)N[C@@H](Cc2c[nH]c3ccccc23)C(=O)N[C@@H](CCCCN)C(=O)N[C@@H](Cc2c[nH]c3ccccc23)C(=O)N1C [Example 5138] ({CH2CO}-Y[NMeA]EPH[Orn][Hyp]WKW[NMeNle][NMeNle]ECG-NH2; thioether N-14)
0.385 to 6.74 nM	0.158 to 4.71 nM	CCCC[C@H]1C(=O)N(C)[C@@H](CCCC)C(=O)N[C@@H](CCCCN)C(=O)N[C@H](C(=O)NCC(N)=O)CSCC(=O)N[C@@H](Cc2ccc(O)cc2)C(=O)N(C)[C@@H](C)C(=O)N[C@@H](CC(N)=O)C(=O)N2CCC[C@H]2C(=O)N[C@@H](Cc2c[nH]cn2)C(=O)N[C@@H](CCC(=O)O)C(=O)N2C[C@H](O)C[C@H]2C(=O)N[C@@H](Cc2c[nH]c3ccccc23)C(=O)N[C@@H](CO)C(=O)N[C@@H](Cc2c[nH]c3ccccc23)C(=O)N1C [Example 5139] ({CH2CO}-Y[NMeA]NPHE[Hyp]WSW[NMeNle][NMeNle]KCG-NH2; thioether N-14)
6.76 to 30.3 nM	4.78 to 72.9 nM	CCCC[C@H]1C(=O)N(C)[C@@H](CCCC)C(=O)N[C@@H](CCN)C(=O)N[C@H](C(=O)NCC(N)=O)CSCC(=O)N[C@@H](Cc2ccc(O)cc2)C(=O)N(C)[C@@H](C)C(=O)N[C@@H](CCN)C(=O)N2CCC[C@H]2C(=O)N[C@@H](CN)C(=O)N[C@@H](CC(C)C)C(=O)N2C[C@H](O)C[C@H]2C(=O)N[C@@H](Cc2c[nH]c3ccccc23)C(=O)N[C@@H](CCN)C(=O)N[C@@H](Cc2c[nH]c3ccccc23)C(=O)N1C [Example 5140] ({CH2CO}-Y[NMeA][Dab]P[Dap]L[Hyp]W[Dab]W[NMeNle][NMeNle][Dab]CG-NH2; thioether N-14)

The remaining lines, values behind:

Compound	IC50 (Human PD-L1/PD-1)	IC50 [1]
CCCC[C@H]1C(=O)N(C)[C@@H](CCCC)C(=O)N[C@@H](CCC(=O)O)C(=O)N[C@H](C(=O)NCC(N)=O)CSCC(=O)N[C@@H](Cc2ccc(O)cc2)C(=O)N(C)[C@@H](C)C(=O)N[C@@H](CC(N)=O)C(=O)N2CCC[C@H]2C(=O)N[C@@H](Cc2c[nH]cn2)C(=O)N[C@@H](CCC(N)=O)C(=O)N2C[C@H](O)C[C@H]2C(=O)N[C@@H](Cc2c[nH]c3ccccc23)C(=O)N[C@@H](CO)C(=O)N[C@@H](Cc2c[nH]c3ccccc23)C(=O)N1C [Example 5126] ({CH2CO}-Y[NMeA]NPHQ[Hyp]WSW[NMeNle][NMeNle]ECG-NH2; thioether N-14)	0.385 to 6.74 nM	4.78 to 72.9 nM
CCCC[C@H]1C(=O)N(C)[C@@H](CCCC)C(=O)N[C@@H](CC(C)C)C(=O)N[C@H](C(=O)NCC(N)=O)CSCC(=O)N[C@@H](Cc2ccc(O)cc2)C(=O)N(C)[C@@H](C)C(=O)N[C@@H](CC(N)=O)C(=O)N2CCC[C@H]2C(=O)NCC(=O)N[C@@H](CCC(N)=O)C(=O)N2C[C@H](O)C[C@H]2C(=O)N[C@@H](Cc2c[nH]c3ccccc23)C(=O)N[C@@H](CO)C(=O)N[C@@H](Cc2c[nH]c3ccccc23)C(=O)N1C [Example 5127] ({CH2CO}-Y[NMeA]NPGQ[Hyp]WSW[NMeNle][NMeNle]LCG-NH2; thioether N-14)	0.385 to 6.74 nM	4.78 to 72.9 nM
CCCC[C@H]1C(=O)N(C)[C@@H](CCCC)C(=O)N[C@@H](CO)C(=O)N[C@H](C(=O)NCC(N)=O)CSCC(=O)N[C@@H](Cc2ccc(O)cc2)C(=O)N(C)[C@@H](C)C(=O)N[C@@H](CC(N)=O)C(=O)N2CCC[C@H]2C(=O)N[C@@H](CO)C(=O)N[C@@H](CCC(N)=O)C(=O)N2C[C@H](O)C[C@H]2C(=O)N[C@@H](Cc2c[nH]c3ccccc23)C(=O)N[C@@H](CO)C(=O)N[C@@H](Cc2c[nH]c3ccccc23)C(=O)N1C [Example 5128] ({CH2CO}-Y[NMeA]NPSQ[Hyp]WSW[NMeNle][NMeNle]SCG-NH2; thioether N-14)	0.385 to 6.74 nM	0.158 to 4.71 nM
CCCC[C@H]1C(=O)N(C)[C@@H](CCCC)C(=O)N[C@@H](CCCNC(=N)N)C(=O)N[C@H](C(=O)NCC(N)=O)CSCC(=O)N[C@@H](Cc2ccc(O)cc2)C(=O)N(C)[C@@H](C)C(=O)N[C@@H](CCN)C(=O)N2CCC[C@H]2C(=O)NCC(=O)N[C@@H](CCC(=O)O)C(=O)N2C[C@H](O)C[C@H]2C(=O)N[C@@H](Cc2c[nH]c3ccccc23)C(=O)N[C@@H](CO)C(=O)N[C@@H](Cc2c[nH]c3ccccc23)C(=O)N1C [Example 5129] ({CH2CO}-Y[NMeA][Dab]PGE[Hyp]WSW[NMeNle][NMeNle]RCG-NH2; thioether N-14)	0.385 to 6.74 nM	4.78 to 72.9 nM
CCCC[C@H]1C(=O)N(C)[C@@H](CCCC)C(=O)N[C@@H](CCCNC(=N)N)C(=O)N[C@H](C(=O)NCC(N)=O)CSCC(=O)N[C@@H](Cc2ccc(O)cc2)C(=O)N(C)[C@@H](C)C(=O)N[C@@H](CCN)C(=O)N2CCC[C@H]2C(=O)N[C@@H](CO)C(=O)N[C@@H](CCC(=O)O)C(=O)N2C[C@H](O)C[C@H]2C(=O)N[C@@H](Cc2c[nH]c3ccccc23)C(=O)N[C@@H](CO)C(=O)N[C@@H](Cc2c[nH]c3ccccc23)C(=O)N1C [Example 5130] ({CH2CO}-Y[NMeA][Dab]PSE[Hyp]WSW[NMeNle][NMeNle]RCG-NH2; thioether N-14)	6.76 to 30.3 nM	0.158 to 4.71 nM
CCCC[C@H]1C(=O)N(C)[C@@H](CCCC)C(=O)N[C@@H](CCCNC(=N)N)C(=O)N[C@H](C(=O)NCC(N)=O)CSCC(=O)N[C@@H](Cc2ccc(O)cc2)C(=O)N(C)[C@@H](C)C(=O)N[C@@H](CCN)C(=O)N2CCC[C@H]2C(=O)N[C@@H](CN)C(=O)N[C@@H](CCC(=O)O)C(=O)N2C[C@H](O)C[C@H]2C(=O)N[C@@H](Cc2c[nH]c3ccccc23)C(=O)N[C@@H](CO)C(=O)N[C@@H](Cc2c[nH]c3ccccc23)C(=O)N1C [Example 5131] ({CH2CO}-Y[NMeA][Dab]P[Dap]E[Hyp]WSW[NMeNle][NMeNle]RCG-NH2; thioether N-14)	0.385 to 6.74 nM	0.158 to 4.71 nM
CCCC[C@H]1C(=O)N(C)[C@@H](CCCC)C(=O)N[C@@H](CCCNC(=N)N)C(=O)N[C@H](C(=O)NCC(N)=O)CSCC(=O)N[C@@H](Cc2ccc(O)cc2)C(=O)N(C)[C@@H](C)C(=O)N[C@@H](CCN)C(=O)N2CCC[C@H]2C(=O)N[C@@H](Cc2c[nH]cn2)C(=O)N[C@@H](CC(=O)O)C(=O)N2C[C@H](O)C[C@H]2C(=O)N[C@@H](Cc2c[nH]c3ccccc23)C(=O)N[C@@H](CO)C(=O)N[C@@H](Cc2c[nH]c3ccccc23)C(=O)N1C [Example 5132] ({CH2CO}-Y[NMeA][Dab]PHD[Hyp]WSW[NMeNle][NMeNle]RCG-NH2; thioether N-14)	6.76 to 30.3 nM	4.78 to 72.9 nM
